Reference: patent US8178658B2 (Dow AgroSciences, LLC, priority 2008, dated 2012)
Like-named read-outs stand apart in the source and are kept apart here.

Key:
[1] = test system: beet armyworm (BAW; Spodoptera exigua: Lepidoptera); experiment: 96-well microtiter plate-based high throughput (HTS) diet bioassay on beet armyworm (BAW HTS); type: in vivo; conditions: for pest or weed control at 12 µg/well, 12 µg/well: Spodoptera exigua, 144 h, read-out: BAW HTS
Method in brief: (§1)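 HTS: eggs on diet topped with 12 μg cpd/well; dark, 29° C; mortality day 6; mean of 6 reps. Tray: 3–5 L2 larvae/well; diet dosed 50 μg/cm^2; 25° C, 14:10 L:D; 6 d; mean of 8 wells. Scored as ≥50% mortality or not.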

[2] = test system: beet armyworm (BAW; Spodoptera exigua: Lepidoptera); experiment: 128-well diet tray assay on beet armyworm (BAW 50); type: in vivo; conditions: for pest or weed control at 50 µg/cm2, 50 µg/cm2: Spodoptera exigua, 144 h, read-out: BAW 50 ug/cm2
Method in brief: as §1

[3] = 96-well microtiter plate HTS diet assay, 12 μg test compound per well, BAW eggs, mortality at 6 d post-treatment, mortality class
[4] = 96-well HTS diet assay, BAW eggs, 12 μg test compound per well, mortality at 6 d post-treatment, mortality class
[5] = 128-well diet tray assay, 50 μg/cm^2 of test compound on diet, second instar BAW larvae, mortality class
[6] = 128-well diet tray assay, second instar BAW larvae, 50 μg/cm^2 of test compound on diet, mortality class

Row | SMILES | BAW HTS [1, 3] | pest or weed control at 12 µg/well, 12 µg/well [1, 4] | BAW 50 ug/cm2 [2, 5] | pest or weed control at 50 µg/cm2, 50 µg/cm2 [2, 6] | BAW HTS [1, 4] | pest or weed control at 12 µg/well, 12 µg/well [1] | pest or weed control at 50 µg/cm2, 50 µg/cm2 [2]
1 | CCO[C@@H]1[C@@H](OC)[C@H](C)O[C@@H](O/N=C2\CCc3cc(-c4ncn(-c5ccc(OC(F)(F)F)cc5)n4)ccc32)[C@@H]1OC [Compound 170, 5-[1-(4-trifluoromethoxyphenyl)-1H-[1,2,4]triazol-3-yl]-indan-1-one O-((2S,3R,4R,5S,6S)-4-ethoxy-3,5-dimethoxy-6-methyl-tetrahydropyran-2-yl)-oxime] | B (either (1) the compound was tested and less than 50 percent mortality was observed or (2) the compound was not tested) | < 50% | A (the compound was tested and at least 50 percent mortality was observed) | > 50% |  |  | 
2 | CO[C@@H]1[C@@H](OC)[C@H](C)O[C@@H](ONC(=O)c2ccc(-c3cn(-c4ccc(OC(F)(F)F)cc4)cn3)cc2)[C@@H]1OC [Compound 171, 4-[1-(4-trifluoromethoxyphenyl)-1H-imidazol-4-yl]-N-((2S,3R,4R,5S,6S)-3,4,5-trimethoxy-6-methyl-tetrahydropyran-2-yloxy)-benzamide] | A (the compound was tested and at least 50 percent mortality was observed) | > 50% | A (the compound was tested and at least 50 percent mortality was observed) | > 50% |  |  | 
3 | CO[C@@H]1[C@@H](OC)[C@H](C)O[C@@H](OC(=O)Nc2ccc(C3=NN(c4cccc(Cl)c4)CC3)cc2)[C@@H]1OC [Compound 172] | B (either (1) the compound was tested and less than 50 percent mortality was observed or (2) the compound was not tested) |  | A (the compound was tested and at least 50 percent mortality was observed) |  | B (either (1) the compound was tested and less than 50 percent mortality was observed or (2) the compound was not tested) |  | 
4 | CO[C@@H]1[C@@H](OC)[C@H](C)O[C@@H](OC(=O)Nc2ccc(-c3cn(-c4ccc(OC(F)(F)F)cc4)cn3)cc2)[C@@H]1OC [Compound 173] | A (the compound was tested and at least 50 percent mortality was observed) |  | A (the compound was tested and at least 50 percent mortality was observed) |  | A (the compound was tested and at least 50 percent mortality was observed) |  | 
5 | CO[C@@H]1[C@@H](OC)[C@H](C)O[C@H](OC(=O)Nc2ccc(-c3cn(-c4ccc(OC(F)(F)F)cc4)cn3)cc2)[C@@H]1OC [Compound 174] | A (the compound was tested and at least 50 percent mortality was observed) |  | A (the compound was tested and at least 50 percent mortality was observed) |  | A (the compound was tested and at least 50 percent mortality was observed) |  | 
6 | CCCCO[C@@H]1[C@@H](OC)[C@H](C)O[C@@H](OC(=O)Nc2ccc(-c3cn(-c4ccc(OC(F)(F)F)cc4)cn3)cc2)[C@@H]1OC [Compound 175] | A (the compound was tested and at least 50 percent mortality was observed) |  | A (the compound was tested and at least 50 percent mortality was observed) |  | A (the compound was tested and at least 50 percent mortality was observed) |  | 
7 | CO[C@@H]1[C@@H](OC)[C@H](C)O[C@@H](OC(=S)Nc2ccc(-c3cn(-c4ccc(OC(F)(F)F)cc4)cn3)cc2)[C@@H]1OC [Compound 176] | B (either (1) the compound was tested and less than 50 percent mortality was observed or (2) the compound was not tested) |  | A (the compound was tested and at least 50 percent mortality was observed) |  |  | < 50% | > 50%
8 | CCO[C@@H]1[C@@H](OC)[C@H](C)O[C@@H](SC(=O)Nc2ccc(-c3cn(-c4ccc(OC(F)(F)F)cc4)cn3)cc2)[C@@H]1OC [Compound 177] | A (the compound was tested and at least 50 percent mortality was observed) |  | B (either (1) the compound was tested and less than 50 percent mortality was observed or (2) the compound was not tested) |  |  | > 50% | < 50%
9 | CCO[C@@H]1[C@@H](OC)[C@H](C)O[C@@H](OC(=O)Nc2ccc(C3=NN(c4ccc(OC(F)(F)F)cc4)CC3)cc2)[C@@H]1OC [Compound 178] | B (either (1) the compound was tested and less than 50 percent mortality was observed or (2) the compound was not tested) |  | A (the compound was tested and at least 50 percent mortality was observed) |  | B (either (1) the compound was tested and less than 50 percent mortality was observed or (2) the compound was not tested) |  | 
10 | CCO[C@@H]1[C@@H](OC)[C@H](C)O[C@@H](OC(=O)Nc2ccc(C3=NN(c4ccc(OC(F)(F)C(F)(F)F)cc4)CC3)cc2)[C@@H]1OC [Compound 179] | B (either (1) the compound was tested and less than 50 percent mortality was observed or (2) the compound was not tested) |  | A (the compound was tested and at least 50 percent mortality was observed) |  | B (either (1) the compound was tested and less than 50 percent mortality was observed or (2) the compound was not tested) |  | 
11 | CCO[C@@H]1[C@@H](OC)[C@H](C)O[C@@H](OC(=O)Nc2ccc(C3=NOC(c4ccc(C(F)(F)F)cc4)C3)cc2)[C@@H]1OC (stereo partly shown) [Compound 181] | A (the compound was tested and at least 50 percent mortality was observed) |  | A (the compound was tested and at least 50 percent mortality was observed) |  | A (the compound was tested and at least 50 percent mortality was observed) |  | 
12 | CCO[C@@H]1[C@@H](OC)[C@H](C)O[C@H](OC(=O)Nc2ccc(C3=NOC(c4ccc(C(F)(F)F)cc4)C3)cc2)[C@@H]1OC (stereo partly shown) [Compound 182] | B (either (1) the compound was tested and less than 50 percent mortality was observed or (2) the compound was not tested) |  | B (either (1) the compound was tested and less than 50 percent mortality was observed or (2) the compound was not tested) |  | B (either (1) the compound was tested and less than 50 percent mortality was observed or (2) the compound was not tested) |  | 
13 | CCO[C@@H]1[C@@H](OC)[C@H](C)O[C@@H](OC(=O)Nc2ccc(C3CC(c4ccc(OC(F)(F)F)cc4)=NO3)cc2)[C@@H]1OC (stereo partly shown) [Compound 183] | A (the compound was tested and at least 50 percent mortality was observed) |  | A (the compound was tested and at least 50 percent mortality was observed) |  | A (the compound was tested and at least 50 percent mortality was observed) |  | 
14 | CCO[C@@H]1[C@@H](OC)[C@H](C)O[C@H](OC(=O)Nc2ccc(C3CC(c4ccc(OC(F)(F)F)cc4)=NO3)cc2)[C@@H]1OC (stereo partly shown) [Compound 184] | B (either (1) the compound was tested and less than 50 percent mortality was observed or (2) the compound was not tested) |  | B (either (1) the compound was tested and less than 50 percent mortality was observed or (2) the compound was not tested) |  | B (either (1) the compound was tested and less than 50 percent mortality was observed or (2) the compound was not tested) |  | 
15 | CCO[C@@H]1[C@@H](OC)[C@H](C)O[C@@H](OC(=O)Nc2ccc(C3=NCC(c4ccc(OC(F)(F)F)cc4)O3)cc2)[C@@H]1OC (stereo partly shown) [Compound 185] | B (either (1) the compound was tested and less than 50 percent mortality was observed or (2) the compound was not tested) |  | B (either (1) the compound was tested and less than 50 percent mortality was observed or (2) the compound was not tested) |  | B (either (1) the compound was tested and less than 50 percent mortality was observed or (2) the compound was not tested) |  | 
16 | CCO[C@@H]1[C@@H](OC)[C@H](C)O[C@@H](OC(=O)Nc2ccc(C3COC(c4ccc(OC(F)(F)F)cc4)=N3)cc2)[C@@H]1OC (stereo partly shown) [Compound 186] | B (either (1) the compound was tested and less than 50 percent mortality was observed or (2) the compound was not tested) |  | A (the compound was tested and at least 50 percent mortality was observed) |  | B (either (1) the compound was tested and less than 50 percent mortality was observed or (2) the compound was not tested) |  | 
17 | CCO[C@@H]1[C@@H](OC)[C@H](C)O[C@@H](OC(=O)Nc2ccc(-n3ccn(-c4ccc(OC(F)(F)F)cc4)c3=O)cc2)[C@@H]1OC [Compound 187] | A (the compound was tested and at least 50 percent mortality was observed) |  | A (the compound was tested and at least 50 percent mortality was observed) |  | A (the compound was tested and at least 50 percent mortality was observed) |  | 
